In the test the target is CFTR (Homo sapiens, UniProt P13569). The test can be described thus: Membrane Potential Dye, Enteroid Assay A. The following applies: for EC50: read-out: Ent. A EC50. The format is cell-based. The method, then: Base medium (ADF+++) consisted of Advanced DMEM/Ham's F12, 2 mM Glutamax, 10 mM HEPES, […] penicillin/streptomycin.
Bath 1 Buffer consisted of 1 mM MgCl2, 160 mM NaCl, 4.5 mM KCl, 10 mM HEPES, 10 mM Glucose, 2 mM CaCl2).
Chloride Free Buffer consisted of 1 mM Magnesium Gluconate, 2 mM Calcium Gluconate, 4.5 mM Potassium Gluconate, 160 mM Sodium Gluconate, 10 mM HEPES, 10 mM Glucose.
Bath 1 Dye Solution consisted of Bath 1 Buffer, 0.04% Pluronic F127, 20 μM Methyl Oxonol, 30 μM CaCCinh-A01, 30 μM Chicago Sky Blue.
Chloride Free Dye Solution consisted of Chloride Free Buffer, 0.04% Pluronic F127, 20 μM Methyl Oxonol, 30 μM CaCCinh-A01, 30 μM Chicago Sky Blue.
3. Enteroid Cell Harvesting and Seeding
Cells were recovered in cell recovery solution, collected by centrifugation at 650 rpm for 5 min at 4° C., resuspended in TryPLE and incubated for 5 min at 37° C. Cells were then collected by centrifugation at 650 rpm for 5 min at 4° C. and resuspended in IEMM containing 10 μM ROCK inhibitor (RI).
4. Membrane Potential Dye, Enteroid Assay A
Briefly, cells were washed 5 times in Bath 1 Buffer. Bath 1 Dye Solution was added, and the cells were incubated for 25 min at room temperature. Following dye incubation, cells were washed 3 times in Chloride Free Dye Solution. Chloride transport was initiated by addition of Chloride Free Dye Stimulation Solution and the fluorescence signal was read for 15 min. […] Chloride transport was then expressed as a percentage of the chloride transport following treatment with 3 μM N-[(6-amino-2-pyridyl)sulfonyl]-6-(3-fluoro-5-isobutoxy-phenyl)-2-[(4S)-2,2,4-trimethylpyrrolidin-1-yl]pyridine-3-carboxamide, 3 μM (R)-1-(2,2-difluorobenzo[d][1,3]dioxol-5-yl)-N-(1-(2,3-dihydroxypropyl)-6-fluoro-2-(1-hydroxy-2-methylpropan-2-yl)-1H-indol-5-yl)cyclopropanecarboxamide and 300 nM acute N-[2,4-bis(1,1-dimethylethyl)-5-hydroxyphenyl]-1,4-dihydro-4-oxoquinoline-3-carboxamide triple combination control (% Activity).

Read-outs that look alike come from different tables or passages of the source. A value given as a limit tells only on which side of the number the result lay.

In general, EC50 refers to the midpoint of the concentration-response curve.

CFTR, sequence (P13569 with tags, fused parts or gaps DEL508-508): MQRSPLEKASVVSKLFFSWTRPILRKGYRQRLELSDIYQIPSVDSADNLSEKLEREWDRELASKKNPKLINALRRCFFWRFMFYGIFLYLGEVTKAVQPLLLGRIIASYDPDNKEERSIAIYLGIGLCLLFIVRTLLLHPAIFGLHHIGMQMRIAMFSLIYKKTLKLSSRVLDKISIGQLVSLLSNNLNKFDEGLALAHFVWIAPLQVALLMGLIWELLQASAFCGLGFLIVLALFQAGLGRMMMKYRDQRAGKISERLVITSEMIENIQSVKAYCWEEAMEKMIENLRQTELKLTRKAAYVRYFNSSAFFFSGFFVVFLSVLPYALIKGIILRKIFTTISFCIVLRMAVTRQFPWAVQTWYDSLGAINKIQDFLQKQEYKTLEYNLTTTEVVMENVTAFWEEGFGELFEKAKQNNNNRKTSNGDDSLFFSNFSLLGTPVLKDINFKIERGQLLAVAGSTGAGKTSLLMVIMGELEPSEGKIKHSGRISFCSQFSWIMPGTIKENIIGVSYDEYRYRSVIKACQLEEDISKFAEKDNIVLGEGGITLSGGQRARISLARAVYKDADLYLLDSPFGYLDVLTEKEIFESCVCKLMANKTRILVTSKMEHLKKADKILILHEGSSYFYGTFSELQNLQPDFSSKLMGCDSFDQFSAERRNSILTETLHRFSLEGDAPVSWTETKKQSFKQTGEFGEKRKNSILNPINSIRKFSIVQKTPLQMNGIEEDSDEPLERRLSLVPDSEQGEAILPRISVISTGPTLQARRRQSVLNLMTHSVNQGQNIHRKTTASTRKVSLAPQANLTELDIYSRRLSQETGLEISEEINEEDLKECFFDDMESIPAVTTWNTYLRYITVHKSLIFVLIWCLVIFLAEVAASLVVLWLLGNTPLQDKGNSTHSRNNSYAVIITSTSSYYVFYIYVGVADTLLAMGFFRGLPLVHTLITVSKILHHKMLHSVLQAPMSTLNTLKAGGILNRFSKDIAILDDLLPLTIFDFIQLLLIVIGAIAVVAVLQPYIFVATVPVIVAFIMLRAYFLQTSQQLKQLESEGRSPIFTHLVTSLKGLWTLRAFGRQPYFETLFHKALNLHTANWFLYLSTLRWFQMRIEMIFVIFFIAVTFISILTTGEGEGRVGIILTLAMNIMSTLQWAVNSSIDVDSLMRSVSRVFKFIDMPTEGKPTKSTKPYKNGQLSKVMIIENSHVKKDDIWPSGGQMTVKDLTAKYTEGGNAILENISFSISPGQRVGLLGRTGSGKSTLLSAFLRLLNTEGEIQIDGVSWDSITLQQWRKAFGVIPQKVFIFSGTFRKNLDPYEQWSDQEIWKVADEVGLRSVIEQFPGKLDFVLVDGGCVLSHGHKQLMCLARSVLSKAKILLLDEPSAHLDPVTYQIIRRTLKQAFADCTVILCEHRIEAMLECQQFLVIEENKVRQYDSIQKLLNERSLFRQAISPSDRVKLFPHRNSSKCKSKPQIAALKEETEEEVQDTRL

In the case of `CC[C@H]1NC(=O)c2cccc(c2)S(=O)(=O)Nc2nc(cc(-c3c(C)cccc3C)n2)O[C@@H]1c1ccc(C(C)(C)C)cc1` [Compound 133], under “Table 9”, the “Ent. A Max Activity” value is reported as “+++ (+++ is >60%)” and the EC50 is below 1000 nM.

For the molecule `Cc1cccc(C)c1-c1cc2nc(n1)NS(=O)(=O)c1cccc(c1)C(=O)N[C@@H]1Cc3ccccc3[C@@H]1O2` (stereo in doubt) [Compound 246], under “Table 8”, the “Ent. A Max Activity” value is on record as “+++ (+++ is >60%)” and the 50% effective concentration (EC50) was below 1000 nM.

As to `Cc1cccc(C)c1-c1cc2nc(n1)NS(=O)(=O)c1cccc(c1)C(=O)NC(C(=O)NC(C)(C)C)CO2` (stereo not drawn) [Compound 66, N-tert-butyl-6-(2,6-dimethylphenyl)-2,2,13-trioxo-9-oxa-2λ^6-thia-3,5,12,19-tetrazatricyclo[12.3.1.14,8]nonadeca-1(18),4(19),5,7,14,16-hexaene-11-carboxamide], the “Ent. A Max Activity” value (Table 8) is listed as “+ (+ is <30%)”.

Consider `CC(C)C[C@@H]1COc2cc(C3=CCCCC3)nc(n2)NS(=O)(=O)c2cccc(c2)C(=O)N1` [Compound 327], for which, under “Enteroid Assay A”, the “Ent. A Max Activity” value is “++ (++ is 30-60%)” and the EC50 fell in the range of 1000 to 3000 nM.

Regarding `CC(C)C[C@@H]1COc2cc(-c3ccccc3OCC3CC3)nc(n2)NS(=O)(=O)c2cccc(c2)C(=O)N1` [Compound 344], under “Enteroid Assay A”, the “Ent. A Max Activity” value is given as “++ (++ is 30-60%)” and the EC50 was 1000 to 3000 nM.

Take `Cc1cccc(C)c1-c1cc2nc(n1)NS(=O)(=O)c1cccc(c1)C(=O)N[C@@H]1CN(CCC3(C(F)(F)F)CC3)CC[C@H]1O2` [Compound 58, (3R,8R)-20-(2,6-Dimethylphenyl)-6-{2-[1-(trifluoromethyl)cyclopropyl]ethyl}-2-oxa-16λ^6-thia-6,9,17,19,22-pentaazatetracyclo[16.3.1.111,15.03,8]tricosa-1(21),11,13,15(23),18(22),19-hexaene-10,16,16-trione]: for the setting “Table 9”, the “Ent. A Max Activity” value is reported as “+++ (+++ is >60%)” and the EC50 is below 1000 nM.

On to `CC(C)C[C@@H]1COc2cc(C3CC4CCC3(C)C4(C)C)nc(n2)NS(=O)(=O)c2cccc(c2)C(=O)N1` (stereo partly drawn) [Compound 311], for which the EC50 (Table 8) is below 1000 nM.

Turning to `Cc1cccc(C)c1-c1cc2nc(n1)NS(=O)(=O)c1cccc(c1)C(=O)NC[C@@H](c1ccccn1)O2` [Compound 232], the “Ent. A Max Activity” value (Table 8) is recorded as “+ (+ is <30%)”.

On to `Cc1cccc(C)c1-c1cc2nc(n1)NS(=O)(=O)c1cccc(c1)C(=O)NCC(c1ccc(C(F)(F)C(F)(F)F)cc1)O2` (stereo not drawn) [Compound 22, 6-(2,6-Dimethylphenyl)-2,2-dioxo-10-[4-(1,1,2,2,2-pentafluoroethyl)phenyl]-9-oxa-2λ^6-thia-3,5,12,19-tetrazatricyclo[12.3.1.14,8]nonadeca-1(18),4(19),5,7,14,16-hexaen-13-one], for which, for the setting “Table 9”, the “Ent. A Max Activity” value is given as “+++ (+++ is >60%)” and the EC50 is below 1000 nM.

Consider `Cc1cccc(C)c1-c1cc2nc(n1)NS(=O)(=O)c1cccc(c1)C(=O)N[C@@H]1CN(C3CC4(CCCCC4)C3)CC[C@H]1O2` [Compound 60, (3R,8R)-20-(2,6-Dimethylphenyl)-6-{spiro[3.5]nonan-2-yl}-2-oxa-16λ^6-thia-6,9,17,19,22-pentaazatetracyclo[16.3.1.111,15.03,8]tricosa-1(21),11,13,15(23),18(22),19-hexaene-10,16,16-trione], for which, under “Table 9”, the “Ent. A Max Activity” value is given as “+++ (+++ is >60%)” and the EC50 was below 1000 nM.

Consider `Cc1cc(C(F)(F)F)n(-c2cc3nc(n2)NS(=O)(=O)c2cccc(c2)C(=O)N[C@H](CC(C)C)CO3)n1` [Compound 109, (11R)-6-[3-methyl-5-(trifluoromethyl)-1H-pyrazol-1-yl]-11-(2-methylpropyl)-9-oxa-2λ^6-thia-3,5,12,19-tetraazatricyclo[12.3.1.14,8]nonadeca-1(17),4,6,8(19),14(18),15-hexaene-2,2,13-trione], for which, for the setting “Table 8”, the “Ent. A Max Activity” value is listed as “+ (+ is <30%)” and the EC50 was below 1000 nM.

For `Cc1cccc(C)c1-c1cc2nc(n1)NS(=O)(=O)c1cccc(c1)C(=O)NC(C(=O)NCc1ccccc1)CO2` (stereo not drawn) [Compound 236], the “Ent. A Max Activity” value (Table 8) is recorded as “+ (+ is <30%)”.

For `Cc1cccc(C)c1-c1cc2nc(n1)NS(=O)(=O)c1cccc(c1)C(=O)N[C@@H]1CN(C3CCC4(CC3)CC4)CC[C@H]1O2` [Compound 374], for the setting “Table 9”, the “Ent. A Max Activity” value is recorded as “+++ (+++ is >60%)” and the EC50 was in the range of 1000 to 3000 nM.

For the molecule `Cc1cccc(C)c1-c1cc2nc(n1)NS(=O)(=O)c1cccc(c1)C(=O)NCC(c1ccc(C3CCC3)cc1)O2` (single isomer, unassigned) [Compound 13, 10-(4-Cyclobutylphenyl)-6-(2,6-dimethylphenyl)-2,2-dioxo-9-oxa-2λ^6-thia-3,5,12,19-tetrazatricyclo[12.3.1.14,8]nonadeca-1(18),4(19),5,7,14,16-hexaen-13-one], under “Table 9”, the “Ent. A Max Activity” value is “+ (+ is <30%)” and the EC50 was below 1000 nM.

Consider `Cc1cccc(C)c1-c1cc2nc(n1)NS(=O)(=O)c1cccc(c1)CN[C@H](CC(C)C)CO2` [Compound 240], for which, where the note is “Table 9”, the “Ent. A Max Activity” value is recorded as “++ (++ is 30-60%)” and the EC50 fell in the range of 3000 to 30000 nM.

Regarding `Cc1cccc(C)c1-c1cc2nc(n1)NS(=O)(=O)c1cccc(c1)C(=O)N[C@@H](CC(C)(C)C)[C@H](C)O2` [Compound 130], where the note is “Table 9”, the “Ent. A Max Activity” value was “+++ (+++ is >60%)” and the EC50 is below 1000 nM.

Take `Cc1cccc(C)c1-c1cc2nc(n1)NS(=O)(=O)c1cccc(c1)C(=O)NCC(c1ccc(C3(C)CC3)cc1)O2` (stereo not drawn) [Compound 265]: where the note is “Table 9”, the “Ent. A Max Activity” value is reported as “++ (++ is 30-60%)” and the EC50 is below 1000 nM.

On to `Cc1cccc(C)c1-c1cc2nc(n1)NS(=O)(=O)c1cccc(c1)C(=O)NCC(C1CCN(C(=O)OC(C)(C)C)CC1)O2` (stereo not drawn) [Compound 248], for which, under “Table 8”, the “Ent. A Max Activity” value is “+++ (+++ is >60%)” and the EC50 was below 1000 nM.

Consider `CC(C)C[C@@H]1COc2cc(-c3ccnn3CC(C)C)nc(n2)NS(=O)(=O)c2cccc(c2)C(=O)N1` [Compound 102, (11R)-11-(2-Methylpropyl)-6-[1-(2-methylpropyl)-1H-pyrazol-5-yl]-9-oxa-2λ^6-thia-3,5,12,19-tetraazatricyclo[12.3.1.14,8]nonadeca-1(17),4(19),5,7,14(18),15-hexaene-2,2,13-trione], for which, where the note is “Enteroid Assay A”, the “Ent. A Max Activity” value is “++ (++ is 30-60%)” and the EC50 was 3000 to 30000 nM.

For `Cc1cccc(C)c1-c1cc2nc(n1)NS(=O)(=O)c1cccc(c1)C(=O)N[C@H](COCc1ccccc1)CO2` [Compound 486], for the setting “Enteroid Assay A”, the “Ent. A Max Activity” value is recorded as “+++ (+++ is >600%)” and the EC50 is 1000 to 3000 nM.

Consider `COc1cccc(C2CNC(=O)c3cccc(c3)S(=O)(=O)Nc3nc(cc(-c4c(C)cccc4C)n3)O2)c1` (stereo not drawn) [Compound 158], for which, under “Table 8”, the “Ent. A Max Activity” value was “+++ (+++ is >60%)” and the EC50 is below 1000 nM.

Regarding `CCC(CC)(CC)c1ccc([C@@H]2CNC(=O)c3cccc(c3)S(=O)(=O)Nc3nc(cc(-c4c(C)cccc4C)n3)O2)cc1` [Compound 258], where the note is “Table 9”, the “Ent. A Max Activity” value was “+++ (+++ is >60%)” and the EC50 is below 1000 nM.

Regarding `CCCCC1(CCCC)COc2cc(-c3c(C)cccc3C)nc(n2)NS(=O)(=O)c2cccc(c2)C(=O)N1` [Compound 185], where the note is “Table 9”, the “Ent. A Max Activity” value is given as “+++ (+++ is >60%)” and the EC50 is below 1000 nM.

As to `Cc1cccc(C)c1-c1cc2nc(n1)NS(=O)(=O)c1cccc(c1)C(=O)N[C@@H]1CN(C(C)C)CC[C@H]1O2` [Compound 373], under “Table 9”, the “Ent. A Max Activity” value is given as “+++ (+++ is >60%)” and the EC50 was in the range of 1000 to 3000 nM.

Regarding `Cc1cccnc1-c1cc2nc(n1)NS(=O)(=O)c1cccc(c1)C(=O)N[C@H](CC(C)C)CO2` [Compound 108, (11R)-11-Isobutyl-6-(3-methyl-2-pyridyl)-2,2-dioxo-9-oxa-2λ^6-thia-3,5,12,19-tetrazatricyclo[12.3.1.14,8]nonadeca-1(18),4(19),5,7,14,16-hexaen-13-one], for the setting “Table 9”, the “Ent. A Max Activity” value was “++ (++ is 30-60%)” and the EC50 was in the range of 3000 to 30000 nM.

As to `CC(C)C[C@@H]1COc2cc(C3C(C)CCCC3C)nc(n2)NS(=O)(=O)c2cccc(c2)C(=O)N1` (stereo partly drawn) [Compound 301], the EC50 (Table 8) is 3000 to 30000 nM.

As for `Cc1cccc(C)c1-c1cc2nc(n1)NS(=O)(=O)c1cccc(c1)C(=O)N[C@H](C(C)C)CO2` [Compound 112, (11R)-6-(2,6-Dimethylphenyl)-11-(propan-2-yl)-9-oxa-2λ^6-thia-3,5,12,19-tetraazatricyclo[12.3.1.14,8]nonadeca-1(17),4,6,8(19),14(18),15-hexaene-2,2,13-trione], under “Enteroid Assay A”, the “Ent. A Max Activity” value was “+++ (+++ is >600%)” and the EC50 was below 1000 nM.

Consider `Cc1cccc(C)c1-c1cc2nc(n1)NS(=O)(=O)c1cccc(c1)C(=O)NCC(c1ccccc1C(C)(C)C)O2` (stereo not drawn) [Compound 278], for which the EC50 (Table 8) is below 1000 nM.

As for `Cc1cccc(C)c1-c1cc2nc(n1)NS(=O)(=O)c1cccc(c1)C(=O)NCC(c1ccc(C(C)(C)O)cc1)O2` (stereo not drawn) [Compound 245], the EC50 (Table 8) is 3000 to 30000 nM.
